Results taken from ChEMBL document CHEMBL1129616, “Synthesis and evaluation of novel thymidine analogs as antitumor and antiviral agents” (J Med Chem, 1996).

System: SV-28
Test: Compound was tested for its effect on (target DNA or RNA) cell plating efficiency at 25 uM after a 24 hr exposure (the SV-28 cell has a plating efficiency between 50 and 60%)
Format: functional, Cricetulus griseus

Q: With `CCCCCCCCCCCCCCCC(=O)CC[N+](C)(C)CCOCn1cc(C)c(=O)[nH]c1=O.[I-]` as the compound, how does the Cell plating efficiency read?
A: The Cell plating efficiency was 47%.
